Measurements from patent publication US9382306B2, “Octapeptide compounds derived from somatostatin and the therapeutic use thereof” (IPSEN PHARMA S.A.S., priority 2008, dated 2016).
Where “and” joins values, the source holds several entries; their conditions need not be identical. Identical values can stand only once. Bridge positions count the residues as written; N and C are the ends. Square brackets hold non-standard residues; d marks the D form. Peptide text beside a SMILES is read from it. ξ: configuration not given here. dPhe(4-NO2) = N[C@H](Cc1ccc([N+](=O)[O-])cc1)C(=O)O; dPhe(3,5-F2) = N[C@H](Cc1cc(F)cc(F)c1)C(=O)O; dPhe(3-Br) = N[C@H](Cc1cccc(Br)c1)C(=O)O; dPhe(4-Br) = N[C@H](Cc1ccc(Br)cc1)C(=O)O; dPhe(2-Br) = N[C@H](Cc1ccccc1Br)C(=O)O; 2Nal = N[C@@H](Cc1ccc2ccccc2c1)C(=O)O; d2Nal = N[C@H](Cc1ccc2ccccc2c1)C(=O)O; dThr(3ξ) = CC(O)[C@@H](N)C(=O)O; Thr(3ξ) = CC(O)[C@H](N)C(=O)O

Tests used:
[1] = Self-assembly study: putting peptides in solution in water, macroscopic, ATR-FTIR, TEM and SAXS analysis; type: physicochemical; conditions: 3 to 15% by mass of peptide in water; form and diameter of the self-assembled structure, or soluble / insoluble
Description: The procedure used comprises three stages: putting the peptides in solution and macroscopic analysis; spectroscopic and microscopic analyses of the structures formed and by small-angle X-ray scattering (SAXS) analyses.
The first stage of the characterization of the derivatives is the production of a range of concentrations from 3 to 15% by mass of peptide in water. Gelling of the solution indicates the presence of self-assembled structures which can be nanotubes but can also be fibres or other self-organised structures.
The object of this stage is to verify the presence of self-assembled structures, to characterize their self-assembly and to visualize them by microscopy.
Infrared spectroscopy makes it possible to obtain information on the method of stacking the peptides in the self-assemblies. The amide band spectrum, reflecting the absorption spectra of the carbonyl functions of the peptide backbone, gives information on the type of hydrogen bond in which these groups are involved (H bonds leading to the formation of the […], a helix or also a loop or random conformation) and consequently on the secondary and tertiary structure of the peptides in solution and self-assembled. The attenuated total reflection technique (ATR-FTIR) uses a crystal on which the solid or liquid sample is deposited. The infrared light is guided through this crystal at an angle which allows it to be reflected several times inside the crystal, which increases the sensitivity of the technique. Due to the performance of this device, it is then possible perform measurements on relatively dilute solutions. The beam penetrates a few microns into the sample deposited on the crystal, which means that only the molecules/structures which are deposited on the surface of the crystal are analyzed. Moreover, this technique is non-destructive.
The assembled structures are then visualized by transmission electron microscopy (TEM). This very powerful technique, allowing magnifications greater than 500,000 times, is one of the few techniques capable of visualizing structures on the nanometric scale. The sample is subjected to an electron beam. The visualization of the transmitted beam is produced either by a photoluminescent screen, or by a CCD camera. The sample in the microscope being under vacuum, it is samples dried after staining with uranyl salts in order to increase contrast which are observed.
The peptide in solution is firstly deposited on a copper grid covered with a film of carbon. After deposition of the materiel, the excess liquid is eliminated. In the same way, the solution of colorant, in our case uranyl acetate, is deposited on the grid, the excess is eliminated and the grid is dried in the open air. It can then be introduced into the microscope.
The samples, liquids or gels, are introduced into a capillary column and subjected to a monochromatic flow of X-rays. The intensity diffused is measured as a function of the scattering angle with respect to the incident angle.
The diffusion patterns thus obtained must be the subject of a correlation with a close theoretical model of the structures present in the sample. In the case where the peptides have self-assembled in the form of hollow nanotubes, the modelling of the experimental data with the theoretical diffusion produced by infinitely long hollow columns makes it possible to determine with precision the diameter of the columns and to estimate their wall thickness (Valery et al. in Biophysical journal, 2004, 86(4), 2484-2501 and Proc. Natl. Acad. Sci., 2003, 100(18) 10258-10262). For polydisperse, nanotubular, fibrilar, micellar or lamellar self-assemblies, it is the correlation of the spectroscopic, microscopic and XR scattering data which makes it possible to estimate a size range for the objects observed.

[2] = target: T1, somatostatin receptors sub-type 5 (Homo sapiens, UniProt P35346); experiment: Affinity for somatostatin receptors: inhibition of [125I-Tyr11]SRIF-14 binding to membranes of transfected CHO-K1 cells; conditions: competitive inhibition of [125I-Tyr11]SRIF-14 binding, 37° C.
T1 construct: expressed in transfected cells; membrane preparations
T1 sequence (P35346 whole entry): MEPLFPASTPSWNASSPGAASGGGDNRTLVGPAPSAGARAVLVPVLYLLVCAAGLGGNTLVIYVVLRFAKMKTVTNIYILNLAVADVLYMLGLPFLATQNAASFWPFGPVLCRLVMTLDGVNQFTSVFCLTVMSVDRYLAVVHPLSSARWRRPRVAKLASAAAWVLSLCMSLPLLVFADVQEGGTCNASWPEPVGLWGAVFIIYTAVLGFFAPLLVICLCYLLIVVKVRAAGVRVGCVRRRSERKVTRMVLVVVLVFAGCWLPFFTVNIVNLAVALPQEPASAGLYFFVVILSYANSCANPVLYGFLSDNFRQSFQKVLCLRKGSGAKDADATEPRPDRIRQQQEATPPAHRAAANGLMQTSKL
Experimental: (§1) The affinity of the compounds of the invention for the somatostatin receptors is determined by measurement of the inhibition of the bond of [125I-Tyr11]SRIF-14 to membrane preparations of transfected CHO-K1 cells.
(§2) The CHO-K1 cells expressing in a stable fashion each of the sub-types of somatostatin receptors are collected with 0.5 mM of EDTA and centrifuged at 500 g for 5 minutes at 4° C. The pellet is re-suspended in phosphate buffer (PBS) and centrifuged at 500 g for 5 minutes at 4° C. The pellet is re-suspended in Tris 50 mM buffer at pH 7.4 and centrifuged at 500 g for 5 minutes at 4° C. The cells are lyzed by sonication and centrifuged at 39,000 g for 10 minutes. The pellet is re-suspended in Tris 50 mM buffer at pH 7.4, an aliquot is removed for assaying the proteins and the remainder is centrifuged at 50,000 g for 10 minutes. The membranes obtained in this last pellet are stored at −80° C.
(§3) Measurement of the competitive inhibition of the bond of [125I-Tyr11]SRIF-14 (Perkin Elmer) on each of the sub-types of somatostatin receptors is carried out in duplicate in 96-well polypropylene plates. The cell membranes (5 to 20 µg of proteins/well) are incubated with [125I-Tyr11]SRIF-14 (0.05 to 0.1 nM) for 50 to 90 minutes at 37° C. (conditions dependent on the sub-type of receptor) in a HEPES buffer medium 50 mM pH 7.4, comprising 0.2% bovine serum albumin (BSA), MgCl2 5 mM, Trasylol 200 KIU/mL, Bacitracin 0.02 mg/mL, phenylmethylsulphonyl fluoride 0.02 mg/mL.
(§4) The bound [125I-Tyr11]SRIF-14 is separated from the free [125I-Tyr11]SRIF-14 by filtration through GF/C glass fibre plates (Unifilter, Perkin Elmer) pre-impregnated with 0.1% polyethylenimine (P.E.I.), using a Filtermate 96 (Perkin Elmer). The filters are washed with Tris-HCl buffer 50 mM, pH 7.4 at 4° C. and the radioactivity present is determined using a counter (TopCount, Perkin Elmer).
(§5) The data are analyzed by computer-assisted non-linear regression using XLfit 4.2 (IDBS) software.

[3] = target: T2, somatostatin receptors sub-type 2 (Homo sapiens, UniProt P30874); experiment: as above; conditions: competitive inhibition of [125I-Tyr11]SRIF-14 binding, 37° C.
T2 construct: expressed in transfected cells; membrane preparations
T2 sequence (P30874 whole entry): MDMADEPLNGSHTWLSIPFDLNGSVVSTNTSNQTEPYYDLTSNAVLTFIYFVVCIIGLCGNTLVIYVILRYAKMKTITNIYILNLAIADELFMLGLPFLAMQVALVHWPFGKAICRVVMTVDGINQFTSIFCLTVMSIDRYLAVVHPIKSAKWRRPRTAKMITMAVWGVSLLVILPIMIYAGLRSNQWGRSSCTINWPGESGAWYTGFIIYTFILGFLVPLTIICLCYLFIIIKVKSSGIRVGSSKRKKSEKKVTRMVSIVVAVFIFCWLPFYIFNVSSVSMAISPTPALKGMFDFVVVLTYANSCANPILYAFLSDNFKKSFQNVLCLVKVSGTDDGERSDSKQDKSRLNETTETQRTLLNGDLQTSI
Experimental: as §1, §2, §3, §4, §5

| Ki [2] [nM] | Ki [3] [nM] | Compound | Assembly [1] |
| --- | --- | --- | --- |
| ≤ 100 | ≤ 50 | CC(C)[C@@H]1NC(=O)[C@H](CCCCN)NC(=O)[C@@H](Cc2c3ccccc3cc3ccccc23)NC(=O)[C@H](Cc2ccc(O)cc2)NC(=O)[C@@H](NC(=O)[C@H](N)Cc2ccc3ccccc3c2)CSSC[C@@H](C(=O)N[C@H](C(N)=O)C(C)O)NC1=O (stereo partly drawn) [Example 8, H-D-2-Nal^1-cyclo(Cys^2Tyr^3-β-(9-anthryl)-D-Ala^4-Lys^5-Val^6Cys^7)-Thr^8-NH2.2 CH3COOH] | insoluble |
| ≤ 100 | ≤ 5 | CC(C)[C@@H]1NC(=O)[C@H](CCCCN)NC(=O)[C@@H](Cc2cccc(Br)c2)NC(=O)[C@H](Cc2ccc(O)cc2)NC(=O)[C@@H](NC(=O)[C@H](N)Cc2ccc3ccccc3c2)CSSC[C@@H](C(=O)N[C@H](C(N)=O)C(C)O)NC1=O (stereo partly drawn) [Example 18, H-D-2-Nal^1-cyclo(Cys^2-Tyr^3-m-Br-D-Phe^4-Lys^5-Val^6-Cys^7)-Thr^8-NH2.2 CH3COOH] (H-[d2Nal]CY[dPhe(3-Br)]KVC[Thr(3ξ)]-NH2; disulfide 2-7) | 18.4-18.8 nm monodisperse |
| ≤ 100 | ≤ 5 | CC(C)[C@@H]1NC(=O)[C@H](CCCCN)NC(=O)[C@@H](Cc2cc(F)cc(F)c2)NC(=O)[C@H](Cc2ccc(O)cc2)NC(=O)[C@@H](NC(=O)[C@H](N)Cc2ccc3ccccc3c2)CSSC[C@@H](C(=O)N[C@H](C(N)=O)C(C)O)NC1=O (stereo partly drawn) [Example 17, H-D-2-Nal^1-cyclo(Cys^2-Tyr^3-3,5-diF-D-Phe^4-Lys^5-Val^6-Cys^7)-Thr^8-NH2.2 CH3COOH] (H-[d2Nal]CY[dPhe(3,5-F2)]KVC[Thr(3ξ)]-NH2; disulfide 2-7) | monodisperse peptide nanotubes and 15.3 nm monodisperse nanotube |
| ≤ 1000 | ≤ 5 | CC(C)[C@@H]1NC(=O)[C@H](CCCCN)NC(=O)[C@@H](Cc2ccc([N+](=O)[O-])cc2)NC(=O)[C@H](Cc2ccc(O)cc2)NC(=O)[C@@H](NC(=O)[C@H](N)Cc2ccc3ccccc3c2)CSSC[C@@H](C(=O)N[C@H](C(N)=O)C(C)O)NC1=O (stereo partly drawn) [Example 20, H-D-2-Nal^1-cyclo(Cys^2-Tyr^3-p-nitro-D-Phe^4-Lys^5-Val^6-Cys^7)-Thr^8-NH2.2 CH3COOH] (H-[d2Nal]CY[dPhe(4-NO2)]KVC[Thr(3ξ)]-NH2; disulfide 2-7) | monodisperse peptide nanotubes and 17.6 nm monodisperse nanotube |
| ≤ 100 | ≤ 50 | CC(C)[C@@H]1NC(=O)[C@H](CCCCN)NC(=O)[C@@H](Cc2ccc(-c3ccccc3)cc2)NC(=O)[C@H](Cc2ccc(O)cc2)NC(=O)[C@@H](NC(=O)[C@H](N)Cc2ccc3ccccc3c2)CSSC[C@@H](C(=O)N[C@H](C(N)=O)C(C)O)NC1=O (stereo partly drawn) [Example 21, H-D-2-Nal^1-cyclo(Cys^2-Tyr^3-p-Ph-D-Phe^4-Lys^5-Val^6-Cys^7)-Thr^8-NH2.2 CH3COOH] | insoluble |
| ≤ 100 | ≤ 5 | CC(C)[C@@H]1NC(=O)[C@H](CCCCN)NC(=O)[C@@H](Cc2ccc(Br)cc2)NC(=O)[C@H](Cc2ccc(O)cc2)NC(=O)[C@@H](NC(=O)[C@H](N)Cc2ccc3ccccc3c2)CSSC[C@@H](C(=O)N[C@H](C(N)=O)C(C)O)NC1=O (stereo partly drawn) [Example 12, H-D-2-Nal^1-cyclo(Cys^2-Tyr^3-p-Br-D-Phe^4-Lys^5-Val^6-Cys^7)-Thr^8-NH2.2 CH3COOH] (H-[d2Nal]CY[dPhe(4-Br)]KVC[Thr(3ξ)]-NH2; disulfide 2-7) | monodisperse peptide nanotubes and 17 nm monodisperse nanotube |
| ≤ 1000 | ≤ 50 | CC(C)[C@@H]1NC(=O)[C@H](CCCCN)NC(=O)[C@@H](Cc2cccs2)NC(=O)[C@H](Cc2ccc(O)cc2)NC(=O)[C@@H](NC(=O)[C@H](N)Cc2ccc3ccccc3c2)CSSC[C@@H](C(=O)N[C@H](C(N)=O)C(C)O)NC1=O (stereo partly drawn) [Example 2, H-D-2-Nal^1-cyclo(Cys^2-Tyr^3-β-(2-thienyl)-D-Ala^4-Lys^5-Val^6-Cys^7)-Thr^8-NH2.2 CH3COOH] | monodisperse peptide nanotubes and 12 nm monodisperse nanotube |
|  |  | COCCOCCOc1ccc(C[C@H]2NC(=O)[C@H](Cc3ccc(O)cc3)NC(=O)[C@@H](NC(=O)[C@H](N)Cc3ccc4ccccc4c3)CSSC[C@@H](C(=O)N[C@H](C(N)=O)[C@@H](C)O)NC(=O)[C@H](C(C)C)NC(=O)[C@H](CCCCN)NC2=O)cc1 [Example 22, H-D-2-Nal^1-cyclo(Cys^2-Tyr^3-p-2-(2-methoxyethoxy)ethoxy)-D-Phe^4-Lys^5-Val^6-Cys^7)-Thr^8-NH2].2 CH3COOH] | 17.4 nm monodisperse nanotube |
| ≤ 5000 | ≤ 700 | CC(C)[C@@H]1NC(=O)[C@H](CCCCN)NC(=O)[C@@H](c2ccccc2)NC(=O)[C@H](Cc2ccc(O)cc2)NC(=O)[C@@H](NC(=O)[C@H](N)Cc2ccc3ccccc3c2)CSSC[C@@H](C(=O)N[C@H](C(N)=O)C(C)O)NC1=O (stereo partly drawn) [Example 10, H-D-2-Nal^1-cyclo(Cys^2-Tyr^3-D-Phg^4-Lys^5-Val^6-Cys^7)-Thr^8-NH2.2 CH3COOH] | self-assembled fibres |
|  |  | CC(C)[C@H]1NC(=O)[C@@H](CCCCN)NC(=O)[C@H](Cc2c[nH]c3ccccc23)NC(=O)[C@@H](Cc2ccc(O)cc2)NC(=O)[C@H](NC(=O)[C@@H](N)Cc2ccc3ccccc3c2)CSSC[C@H](C(=O)N[C@@H](C(N)=O)C(C)O)NC1=O (stereo partly drawn) [Example 23, H-2-Nal^1-cyclo(D-Cys^2-D-Tyr^3-Trp^4-D-Lys^5-D-Val^6-D-Cys^7)-D-Thr^8-NH2.2 CH3COOH] (H-[2Nal][dC][dY]W[dK][dV][dC][dThr(3ξ)]-NH2; disulfide 2-7) | 24.4 nm monodisperse nanotube |
| ≤ 100 | ≤ 5 | CC(C)[C@@H]1NC(=O)[C@H](CCCCN)NC(=O)[C@@H](Cc2ccccc2Br)NC(=O)[C@H](Cc2ccc(O)cc2)NC(=O)[C@@H](NC(=O)[C@H](N)Cc2ccc3ccccc3c2)CSSC[C@@H](C(=O)N[C@H](C(N)=O)C(C)O)NC1=O (stereo partly drawn) [Example 19, H-D-2-Nal^1-cyclo(Cys^2-Tyr^3-o-Br-D-Phe^4-Lys^5-Val^6-Cys^7)-Thr^8-NH2.2 CH3COOH] (H-[d2Nal]CY[dPhe(2-Br)]KVC[Thr(3ξ)]-NH2; disulfide 2-7) |  |
